From article PMC9532399, “The lysosomal transporter TAPL has a dual role as peptide translocator and phosphatidylserine floppase” (Nature Communications, 2022) come the findings set out here.

Holding throughout (assay type): biochemical
For assay [1], the target named is T1, mouse TAPL ΔTMD0 (Mus musculus, UniProt Q9JJ59).
T1 construct: thrombin cleavage site (C); eGFP (C); 10XHis (C); made in house; host or cells: Trichoplusia ni High Five (Hi5) insect cells, baculovirus (pVL1393)
T1 sequence (Q9JJ59 143-762): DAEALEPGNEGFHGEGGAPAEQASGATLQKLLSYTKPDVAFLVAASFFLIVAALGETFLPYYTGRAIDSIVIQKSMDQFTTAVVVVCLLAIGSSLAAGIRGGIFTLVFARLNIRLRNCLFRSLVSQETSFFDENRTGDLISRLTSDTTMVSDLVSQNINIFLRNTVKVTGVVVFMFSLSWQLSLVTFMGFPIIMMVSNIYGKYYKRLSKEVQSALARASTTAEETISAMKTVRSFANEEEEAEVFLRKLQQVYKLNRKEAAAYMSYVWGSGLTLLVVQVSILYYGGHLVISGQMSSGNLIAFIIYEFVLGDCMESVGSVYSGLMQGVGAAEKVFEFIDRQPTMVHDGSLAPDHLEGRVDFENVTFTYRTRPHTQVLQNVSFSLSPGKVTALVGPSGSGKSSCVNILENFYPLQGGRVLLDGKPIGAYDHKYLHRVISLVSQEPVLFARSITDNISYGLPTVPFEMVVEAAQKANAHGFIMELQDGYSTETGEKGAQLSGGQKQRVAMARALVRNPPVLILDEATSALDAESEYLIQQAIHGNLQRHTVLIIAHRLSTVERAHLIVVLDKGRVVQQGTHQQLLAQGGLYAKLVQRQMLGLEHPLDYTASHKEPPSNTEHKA
The experiment in a line: Dithionite-based flip-flop (floppase) assay of NBD*-labeled lipids, ΔTMD0 proteoliposomes. As to conditions: NBD*-labeled lipid; PE, PG, PC and cholesterol data not shown. The procedure: All lipids used in reconstitution were purchased from Avanti Polar Lipids, Inc. (purity > 99%). The in vitro flip–flop assay was performed using NBD* dye-labeled proteoliposomes as described previously. Briefly, E. coli polar lipids and egg PC were mixed in a 1:1 molar ratio, and 0.5% (mol/mol) NBD*-lipid was added. The lipid mixture was then dried under nitrogen gas. The NBD*-lipids used were 18:1-06:0 NBD*-PS (1-oleoyl-2-{6-[(7-nitro-2-1,3-benzoxadiazol-4-yl)amino]hexanoyl}-sn-glycero-3-phosphoserine), 18:1-06:0 NBD*-PC (1-oleoyl-2-{6-[(7-nitro-2-1,3-benzoxadiazol-4-yl)amino]hexanoyl}-sn-glycero-3-phosphocholine), 18:1-06:0 NBD*-PG (1-oleoyl-2-{6-[(7-nitro-2-1,3-benzoxadiazol-4-yl)amino]hexanoyl}-sn-glycero-3-[phospho-rac-(1-glycerol)]), 18:1-06:0 NBD*-PE (1-oleoyl-2-{6-[(7-nitro-2-1,3-benzoxadiazol-4-yl)amino]hexanoyl}-sn-glycero-3-phosphoethanolamine), and 25-NBD*-Cholesterol (25-[N-[(7-nitro-2-1,3-benzoxadiazol-4-yl)methyl]amino]−27-norcholesterol). Thin lipid films were solubilized in 20 mM HEPES–NaOH pH 8.0, 200 mM NaCl and 5% (v/v) glycerol, incubated at RT for 30 min and subjected to 5 freeze–thaw cycles. After extrusion with a Mini-Extruder at 65 °C, final lipid concentrations were determined by phosphorus assays. Briefly, 10 μL of extruded lipid was added to 10 μL of 2% (w/v) ammonium molybdate and 300 μL of concentrated perchloric acid. The mixture was heated at 250 °C for 30 min, then cooled to RT and mixed with 1.5 mL of 0.4% (w/v) ammonium molybdate and 250 μL of 9% (w/v) L-ascorbic acid. It was again heated at 100 °C for 6 min and cooled to RT. Lipid concentrations were calculated from the absorbance at 820 nm using a standard curve prepared with NaH2PO4 solution. After accurately determining the lipid concentration, DM-purified protein and 5 mM lipid suspension (solubilized in 5 mM DM) were mixed 1:25 (w/w). After incubation at 4 °C for 1.5 h, DM detergent was removed with 75 mg Bio-beads SM-2 by periodic gentle shaking for 1 h at 4 °C (Supplementary Fig. 5a). The beads were replaced once, followed by an additional incubation at 4 °C for 2 h to completely remove detergent. The resulting proteoliposomes were collected by ultracentrifugation at 200,000×g for 1.5 h at 4 °C.
To measure the flip–flop activity, 10 μL of 2 mM NBD*-labeled proteoliposomes were added to 100 μL of reaction buffer (20 mM HEPES–NaOH pH 8.0, 200 mM NaCl, 5 mM ATP and 5% (v/v) glycerol) in the presence of 2 mM MgCl2 (or NaCl), and incubated at 37 °C for 1 h. The mixture was transferred to a 96-well plate and time-dependent fluorescence (λex/λem = 460/538 nm) was recorded every 30 s for 26 min using a fluorescence spectrophotometer (Gemini XPS). After the baseline fluorescence had stabilized, 10 mM sodium dithionite was added to quench the fluorescence of NBD*-lipid present in the outer leaflets of the liposomes. The initial rapid drop and subsequent slow decline in fluorescence intensity were monitored. When a new steady state was established, 1% (v/v) Triton X-100 was added to completely disrupt the liposomes. The net percentage of NBD*-lipid translocated across the lipid bilayer was calculated from the following equation[72]: the percentage of protected NBD*-lipid in the inner leaflet = [(FD−F0)/(FT−F0)]×100, and that of accessible NBD*-lipid in the outer leaflet = [(FT−FD)/(FT−F0)]×100, where FT is the total fluorescence of the sample before the addition of dithionite, FD is the fluorescence of the sample after quenching with dithionite, and F0 is any residual fluorescence of the sample after solubilization with Triton X-100. Fluorescence values (FT, FD, F0) were calculated as the averages of 5 points on the respective plateau lines. The ΔTMD0-mediated lipid floppase activity was determined by subtracting the percentage of NBD*-lipid fluorescence measured in the presence of Na^+/ATP from that measured in the presence of Mg^2+/ATP.

Assay [2] addresses T1, mouse TAPL ΔTMD0. The experiment in a line: Lipid-stimulated ATPase assay, DM-purified ΔTMD0. As to conditions: lipid stimulation, 3 mM ATP. The procedure: (§1) The ATPase activities of proteins obtained after various purification procedures were determined by NADH-coupled spectrophotometric assays. 10 μg of DM-purified or nanodisc-reconstituted protein was added to 140 μL of reaction buffer containing 50 mM HEPES–KOH pH 8.0, 60 μg/mL pyruvate kinase (Roche), 16 μg/mL lactate dehydrogenase (Roche), 10 mM phosphoenolpyruvate (Roche), 0.3 mM NADH, 3 mM ATP, 10 mM MgCl2, and 0.17% (w/v) DM in the presence or absence of 250 μM peptide. For proteins reconstituted into nanodiscs, DM was not added to the reaction buffer. For lipid-stimulated ATPase assays, the thin film of lipids was hydrated in 100 μL of buffer containing 50 mM HEPES–KOH pH 8.0 and 10 mM MgCl2 to yield a 10 mM solution. After sonication of the lipid solution for 10 min to decrease its turbidity, the reaction was initiated by adding varying concentrations of lipids to the mixture. ATP hydrolysis activity was monitored at 37 °C for 3 min by measuring the rate of decline of NADH absorbance at 340 nm. To inhibit ATP hydrolysis, the reaction mixture was incubated with 3 mM AMP-PNP or 8 mM NaF/2 mM BeSO4 for 5 min at RT. The kinetic parameters of ATP hydrolysis were calculated by fitting the initial rates of ATP hydrolysis to the Michaelis–Menten equation using PRISM 4.0 (GraphPad software).

Assay [3] has as its target T1, mouse TAPL ΔTMD0. Put plainly: NADH-coupled ATPase assay, DM-purified ΔTMD0. The method, then:
as §1

Assay [4] addresses T1, mouse TAPL ΔTMD0. Put plainly: Peptide transport assay, ΔTMD0 proteoliposomes. As to conditions: for reduction of peptide transport: 5-IAF-labeled peptide, ATP-dependent, relative to 9-mer; for Transport activity: peptide 10 mM (sic), + 3 mM ATP. The procedure:
Proteoliposomes for peptide transport assays were prepared according to the protocol of Zhao et al., with some modifications. Briefly, E. coli polar lipid extract dissolved in chloroform was dried under a gentle stream of nitrogen. The thin film of lipids was placed under a desiccator overnight to completely remove residual chloroform and then hydrated in 1X PBS buffer pH 7.4 (137 mM NaCl, 2.7 mM KCl, 8 mM Na2HPO4, and 2 mM KH2PO4) with 10 mM MgCl2 and 5% (v/v) glycerol. After water bath sonication at 22 °C for 5 min (Powersonic 610, KLEENTEK), the lipid solution was extruded using a Mini-Extruder equipped with a polycarbonate membrane filter (200 nm pore) (Avanti Polar Lipids, Inc.) to obtain unilamellar vesicles, which were destabilized with 0.36% (w/v) DM. The DM-purified protein and lipid suspension were mixed in a 1:50 (w/w) ratio. After incubation at 4 °C for 2 h, the mixture was treated with Bio-Beads SM-2 resin (60 and 120 mg, see above) at 4 °C for a total of 18 h to remove detergent. The proteoliposomes were collected by centrifugation at 200,000×g for 1.5 h at 4 °C and resuspended in the buffer described above.
The peptide transport activity of ΔTMD0 was measured as described previously. Briefly, 50 μL of ΔTMD0-loaded proteoliposomes (~0.6 μg protein) were added into 200 μL reaction buffer containing 1X PBS pH 7.4, 3 mM ATP, and 10 mM MgCl2 in the presence or absence of 10 μM 5-IAF-labeled peptides. To investigate transport activity, the mixture was incubated at 37 °C for 10 min. The reaction was terminated by incubating the mixture for 20 min on ice. Proteoliposomes were collected by centrifugation at 200,000×g for 30 min and then washed twice with 1X PBS. The proteoliposomes were completely disrupted by adding 10% (w/v) SDS solution (final concentration, 2%). The transported peptide was measured using a microplate reader (Gemini XPS) with excitation at 485 nm and emission at 520 nm.

[5] abbreviates: 9-mer + ATP set at 100%, 37 °C 10 min, mean n=3.

On to `CCCCCCCC/C=C\CCCCCCCC(=O)OC[C@H](COP(=O)(O)OCC(O)CO)OC(=O)CCCCCNc1ccc([N+](=O)[O-])c2nonc12` (mixture of isomers) [NBD*-PG, 1-oleoyl-2-{6-[(7-nitro-2-1,3-benzoxadiazol-4-yl)amino]hexanoyl}-sn-glycero-3-[phospho-rac-(1-glycerol)]], for which the “ATP-dependent lipid transport by ΔTMD0” value at mouse TAPL ΔTMD0 [1] was “very low”.

Regarding `CCCCCCCC/C=C\CCCCCCCC(=O)O[C@H](COC(=O)CCCCCCCCCCCCCCC)COP(=O)(O)OCC(O)CO` (mixture of isomers) [POPG, 1-palmitoyl-2-oleoyl-sn-glycero-3-phospho-(1’-rac-glycerol)], at mouse TAPL ΔTMD0 [2], the “maximal ATPase activity (turnover)” value was 155 min⁻¹. Moreover, at mouse TAPL ΔTMD0 [2] (means ± SEM), the Km stood at 105 ± 16 µM and the “maximal ATPase activity (Vmax)” value came out at 1147 ± 41 nmol/mg/min.

On to `Nc1ncnc2c1ncn2[C@@H]1O[C@H](COP(=O)(O)OP(=O)(O)NP(=O)(O)O)[C@@H](O)[C@H]1O` [AMP-PNP], for which, at mouse TAPL ΔTMD0 [3] (in the presence of 9-mer peptide), the “ATP hydrolysis in presence of ATP analogs” value is “prevented ATP hydrolysis”.

`Nc1ncnc2c1ncn2[C@@H]1O[C@H](COP(=O)(O)OP(=O)(O)OP(=O)(O)O)[C@@H](O)[C@H]1O` [ATP]: the Vmax at mouse TAPL ΔTMD0 [3] (basal ATPase activity, DM-purified ΔTMD0) is given as 394 ± 10 nmol/mg/min. Also, the Km at mouse TAPL ΔTMD0 [3] (basal ATPase activity, DM-purified ΔTMD0, read-out: Km for ATP) came to 497 ± 61 µM.

With `CCCCCCCC/C=C\CCCCCCCC(=O)OC[C@H](COP(=O)([O-])OCC[N+](C)(C)C)OC(=O)CCCCCNc1ccc([N+](=O)[O-])c2nonc12` [NBD*-PC, 1-oleoyl-2-{6-[(7-nitro-2-1,3-benzoxadiazol-4-yl)amino]hexanoyl}-sn-glycero-3-phosphocholine], the “ATP-dependent lipid transport by ΔTMD0” value at mouse TAPL ΔTMD0 [1] was “very low”.

For `CCCCCCCC/C=C\CCCCCCCC(=O)OC[C@H](COP(=O)(O)OCCN)OC(=O)CCCCCNc1ccc([N+](=O)[O-])c2nonc12` [NBD*-PE, 1-oleoyl-2-{6-[(7-nitro-2-1,3-benzoxadiazol-4-yl)amino]hexanoyl}-sn-glycero-3-phosphoethanolamine], at mouse TAPL ΔTMD0 [1], the “ATP-dependent lipid transport by ΔTMD0” value is “very low”.

As to `CC(CCC[C@@H](C)[C@@H]1CC[C@H]2[C@@H]3CC=C4C[C@@H](O)CC[C@]4(C)[C@H]3CC[C@@]21C)N(C)c1ccc([N+](=O)[O-])c2nonc12` (stereo partly shown) [NBD*-cholesterol, 25-[N-[(7-nitro-2-1,3-benzoxadiazol-4-yl)methyl]amino]−27-norcholesterol], at mouse TAPL ΔTMD0 [1], the “ATP-dependent lipid transport by ΔTMD0” value is on record as “failed to detect ΔTMD0-mediated translocation”.

`CCCCCCCC/C=C\CCCCCCCC(=O)OC(COC(=O)CCCCCCCCCCCCCCC)COP(=O)([O-])OCC[N+](C)(C)C` (stereo not shown) [POPC, 1-palmitoyl-2-oleoyl-glycero-3-phosphocholine]: at mouse TAPL ΔTMD0 [2], the “maximal ATPase activity (turnover)” value worked out at 88 min⁻¹. For the same molecule, the “maximal ATPase activity (Vmax)” value at mouse TAPL ΔTMD0 [2] (means ± SEM) is 649 ± 35 nmol/mg/min.

For “RRYQNSTELRRYQNSTC^5-IAFL [18-mer, 5-IAF-labeled 18-mer peptide]”, the “reduction of peptide transport” value on mouse TAPL ΔTMD0 [4] was 90%. Also, the Transport activity on mouse TAPL ΔTMD0 [4] (setting [5]) amounted to 10.0006%; at mouse TAPL ΔTMD0 [4] (replicate I), 11.6836%; at mouse TAPL ΔTMD0 [4] (replicate II), 10.1438%; at mouse TAPL ΔTMD0 [4] (replicate III) it was 8.174%.

Take “RRYQNSTELRRYQNSTELNSTC^5-IAFL [23-mer, 5-IAF-labeled 23-mer peptide]”: at mouse TAPL ΔTMD0 [4], the “reduction of peptide transport” value is 80%. The Transport activity on mouse TAPL ΔTMD0 [4] (setting [5]) was found to be 20.2607%; on mouse TAPL ΔTMD0 [4] (replicate I) it was 20.4488%; on mouse TAPL ΔTMD0 [4] (replicate II) it was 15.9535%; on mouse TAPL ΔTMD0 [4] (replicate III), 24.3798%.

For orientation: Km means the concentration of substrate that gives half-maximal velocity. A word on the Vmax: it is the rate approached at saturating substrate.
